Measurements published in publication PMC5443610 (Journal of Medicinal Chemistry, 2017).
Values after ≈ are worked out from the molar mass of the structure shown.

Experiments:
BRPF1 BD = molecular target: T1, BRPF1 BD (Homo sapiens, UniProt P55201); test: TR-FRET binding competition assay
T1 sequence (P55201 626-740): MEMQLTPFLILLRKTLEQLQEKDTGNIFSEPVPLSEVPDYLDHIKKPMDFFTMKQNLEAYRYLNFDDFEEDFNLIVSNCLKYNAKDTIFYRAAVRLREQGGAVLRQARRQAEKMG

BRPF3 BD = molecular target: T2, BRPF3 BD (Homo sapiens, UniProt Q9ULD4); test: TR-FRET binding competition assay
T2 sequence (Q9ULD4 592-711): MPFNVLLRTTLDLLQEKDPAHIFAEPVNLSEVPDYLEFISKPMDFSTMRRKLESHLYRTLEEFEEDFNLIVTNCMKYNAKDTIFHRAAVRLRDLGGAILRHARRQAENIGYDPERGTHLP

TAF1L BD2 = molecular target: T3, TAF1L BD2 (Homo sapiens, UniProt Q8IZX4); test: biochemical; type: binding
T3 sequence (Q8IZX4 1517-1649): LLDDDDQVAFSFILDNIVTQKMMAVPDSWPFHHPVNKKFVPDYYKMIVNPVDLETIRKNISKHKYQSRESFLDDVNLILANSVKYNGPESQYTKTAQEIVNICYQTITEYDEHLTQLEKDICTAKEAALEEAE

BRPF1 = molecular target: T4, BRPF1 (Homo sapiens, UniProt P55201); test: AlphaScreen; type: binding
T4 sequence (P55201 628-732 limits assumed): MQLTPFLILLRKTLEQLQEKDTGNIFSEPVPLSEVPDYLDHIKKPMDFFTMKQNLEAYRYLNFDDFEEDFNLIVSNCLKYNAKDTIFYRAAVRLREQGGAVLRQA

BRPF3 = molecular target: T5, BRPF3 (Homo sapiens, UniProt Q9ULD4); test: AlphaScreen; type: binding
T5 sequence (Q9ULD4 589-693 limits assumed): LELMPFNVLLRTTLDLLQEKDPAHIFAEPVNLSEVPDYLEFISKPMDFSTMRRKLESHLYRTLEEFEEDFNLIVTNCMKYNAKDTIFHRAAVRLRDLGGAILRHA

CREBBP = CREBBP (Homo sapiens, UniProt Q92793); test: AlphaScreen; type: binding
CREBBP BD = CREBBP BD (Homo sapiens, UniProt Q92793); test: Isothermal titration calorimetry; type: binding
BRPF1 BD/H4 = molecular target: T6, BRPF1 BD/H4 (Homo sapiens, UniProt P55201); test: NanoBRET cellular assay; type: cell-based
T6 sequence (P55201 626-732): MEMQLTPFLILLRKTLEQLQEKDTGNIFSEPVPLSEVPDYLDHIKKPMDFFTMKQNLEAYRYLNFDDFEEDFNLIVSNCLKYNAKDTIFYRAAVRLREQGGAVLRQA

[1] = tested on: panel containing over 300 kinases; test: Kinase panel; type: biochemical; settings: 10 μM, all cases
68 potential targets = test: LeadProfilingScreen; settings: 10 μM compound
[2] = Metabolic stability in liver microsomes; type: in vitro ADME; settings: mouse liver microsomes
[3] = Metabolic stability in liver microsomes; type: in vitro ADME; settings: rat liver microsomes
[4] = Metabolic stability in liver microsomes; type: in vitro ADME; settings: dog liver microsomes
[5] = Metabolic stability in liver microsomes; type: in vitro ADME; settings: human liver microsomes
[6] = Metabolic stability in hepatocytes; type: in vitro ADME; settings: rat hepatocytes
Caco2 permeability assay = type: in vitro ADME; settings: human, Caco-2, pH 7.2, Caco2 Papp (B-A), 2 μM, 2 h
[7] = In vivo rat pharmacokinetics; parameters: species or system Wistar rat
Caco2 cells = test: Caco2 permeability assay; type: in vitro ADME
[8] = Reversed-phase HPLC lipophilicity; type: physicochemical; settings: pH 7.5
[9] = High-throughput aqueous solubility from DMSO solution; type: physicochemical; settings: pH 6.5 buffer
BRPF2 BD/H4 = molecular target: T7, BRPF2 BD/H4 (Homo sapiens, UniProt O95696); test: NanoBRET cellular assay; type: cell-based; settings: HCT116 cells
T7 sequence (O95696 560-666): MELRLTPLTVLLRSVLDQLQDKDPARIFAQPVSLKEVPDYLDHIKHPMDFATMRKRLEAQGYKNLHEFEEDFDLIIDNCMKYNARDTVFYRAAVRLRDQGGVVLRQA

BRD4 BDs = BRD4 BDs (Homo sapiens, UniProt O60885); test: AlphaScreen; type: binding
panel of 22 kinases = test: Panel of 22 kinases; type: biochemical; settings: data not shown

CREBBP, sequence (Q92793 1081-1197): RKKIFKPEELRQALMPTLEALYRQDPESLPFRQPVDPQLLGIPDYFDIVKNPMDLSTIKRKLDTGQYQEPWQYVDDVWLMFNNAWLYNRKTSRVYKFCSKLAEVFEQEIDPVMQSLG
CREBBP BD, sequence (Q92793 1081-1197): as above

Cc1cc2c(cc1N1C(=O)c3cccc4c(CCCO)ccc(c34)C1=O)n(C)c(=O)n2C (racemic) [Compound 5, 6-(3-Hydroxypropyl)-2-(1,3,6-trimethyl-2-oxo-2,3-dihydro-1H-benzimidazol-5-yl)-1H-benzo[de]isoquinoline-1,3(2H)-dione]
IC50 (BRPF1 BD; BRPF1 IC50, TR-FRET): 3150 nM | IC50 (BRPF3 BD): 5550 nM | IC50 (TAF1L BD2): 106 nM | IC50 (BRPF1): 2280 nM | IC50 (BRPF3): 2450 nM | IC50 (CREBBP): 1710 nM | Kd (CREBBP BD): 1390 nM | IC50 (BRPF1 BD/H4): > 10000 nM | inhibition in kinase panel [1]: less than 50% | inhibition or stimulation in LeadProfilingScreen (68 potential targets): ≤ 25% | CLblood [2]: 3.17 mL/min/kg | CLblood [3]: 2.5 mL/min/kg | CLblood [4]: < 0.017 mL/min/kg | Fmax [4]: 100% | CLblood [5]: < 0.017 mL/min/kg | Fmax [5]: 100% | CLblood [6]: 63.3 mL/min/kg | Papp B→A at 2 h, 2 μM (Caco2 permeability assay): 19.1 ×10⁻⁶ cm/s | blood clearance as share of hepatic blood flow [7]: ca. 17% | CLblood ([7]; in vivo): 12.2 mL/min/kg

Cc1cc2c(cc1N1C(=O)c3cccc4c(CCCO)ccc(c34)C1=O)n(C)c(=O)n2C (single isomer, unassigned) [atropisomer 1, (−)-6-(3-Hydroxypropyl)-2-(1,3,6-trimethyl-2-oxo-2,3-dihydro-1H-benzimidazol-5-yl)-1H-benzo[de]isoquinoline-1,3(2H)-dione]
IC50 (BRPF1 BD; BRPF1 IC50, TR-FRET): 5860 nM

Cc1cc2c(cc1N1C(=O)c3cccc4c(CCCO)ccc(c34)C1=O)n(C)c(=O)n2C (single isomer, unassigned) [atropisomer 2, (+)-6-(3-Hydroxypropyl)-2-(1,3,6-trimethyl-2-oxo-2,3-dihydro-1H-benzimidazol-5-yl)-1H-benzo[de]isoquinoline-1,3(2H)-dione]
IC50 (BRPF1 BD; BRPF1 IC50, TR-FRET): 5490 nM

Cn1c(=O)n(C)c2cc(N3C(=O)c4cccc5cccc(c45)C3=O)ccc21 [Compound 6]
IC50 (BRPF1 BD; BRPF1: inactive up to concentration, TR-FRET, HTS hit dose-response): > 20000 nM | IC50 (BRPF3 BD): > 20000 nM | permeability profile in Caco2 cells (Caco2 cells): excellent permeability profile | chromatographic logD [8]: 2.1 | solubility at 24 h [9]: 3.7 µg/mL (≈ 10.4 µM)

Cc1cc2c(cc1N1C(=O)c3cccc4cccc(c34)C1=O)n(C)c(=O)n2C [Compound 7, 2-(1,3,6-Trimethyl-2-oxo-2,3-dihydro-1H-benzimidazol-5-yl)-1H-benzo[de]isoquinoline-1,3(2H)-dione]
IC50 (BRPF2 BD/H4): 470 nM

Cc1cc2c(cc1N1C(=O)c3cccc4c(Cl)ccc(c34)C1=O)n(C)c(=O)n2C [Compound 13, 6-Chloro-2-(1,3,6-trimethyl-2-oxo-2,3-dihydro-1H-benzimidazol-5-yl)-1H-benzo[de]isoquinoline-1,3(2H)-dione]
cellular activity for BRPF1 (BRPF1 BD/H4; NanoBRET): no activity

Cn1c(=O)[nH]c2cc(N3C(=O)c4cccc5c(CCCO)ccc(c45)C3=O)ccc21 [Compound 31, 6-(3-Hydroxypropyl)-2-(1-methyl-2-oxo-2,3-dihydro-1H-benzimidazol-5-yl)-1H-benzo[de]isoquinoline-1,3(2H)-dione]
activity for BRPF3 (BRPF3; AlphaScreen): no activity | activity for BRD4 BDs (BRD4 BDs): no activity | no activity up to, panel of 22 kinases (panel of 22 kinases): > 10 µM
